Data from US9260459B2, “4,6-hexadecadiene-2,4-dicarboxylic acid derivative” (Kyowa Hakko Kirin Co., Ltd., priority 2012, dated 2016).

test system: human cervical cancer cell line HeLa; assay: Cell growth inhibition test against human cervical cancer cells; format: cell-based; details: compound concentration 20 μmol/L, 72 hours culture, read-out: inhibited the cell growth
Procedure: As a cervical cancer cell line, a human cervical cancer cell line HeLa (DS Pharma Biomedical, Cat. No. EC93021013-F0) was used.
The cell line was cultured under conditions of 37° C. and 5% carbon dioxide.
The difference in absorbance in the well in which the cells were not treated with the compound was taken as 100%, and the difference in absorbance in the well in which the cells were not inoculated was taken as 0%, and the cell growth ratio (%) was calculated based on the difference in absorbance in the compound-treated group.

SMILES	inhibition at 20 µM [%]
CCC(C)CC(C)CC(C)CC(C)/C=C(C)/C=C(/CC(C)C(=O)OC1C(=O)OC(C(=O)O)C1C(=O)O)C(=O)O (stereo not shown) [Compound 1, 4-{(4Z,6E)-4-Carboxy-2,6,8,10,12,14-hexamethylhexadec-4,6-dienoyloxy}-5-oxotetrahydrofuran-2,3-dicarboxylic Acid]	≥ 90
CCC(C)CC(C)CC(C)CC(C)/C=C(C)/C=C(/CC(C)C(=O)OC1C(=O)OC(C(=O)OCOC(C)=O)C1C(=O)OCOC(C)=O)C(=O)OCOC(C)=O (stereo not shown) [Compound 27, Di(acetoxymethyl) 4-{(4Z,6E)-4-(acetoxymethoxycarbonyl)-2,6,8,10,12,14-hexamethylhexadec-4,6-dienoyloxy}-5-oxotetrahydrofuran-2,3-dicarboxylate]	≥ 90

same assay, conditions: compound concentration 200 μmol/L, 72 hours culture, read-out: inhibited the cell growth

SMILES	inhibition at 200 µM [%]
CCC(C)CC(C)CC(C)CC(C)/C=C(C)/C=C(/CC(C)C(=O)OC1C(=O)OC(C(=O)OC)C1C(=O)OC)C(=O)OC (stereo not shown) [Compound 5, Dimethyl 4-{(4Z,6E)-4-(methoxycarbonyl)-2,6,8,10,12,14-hexamethylhexadec-4,6-dienoyloxy}-5-oxotetrahydrofuran-2,3-dicarboxylate]	≥ 90
CCC(C)CC(C)CC(C)CC(C)/C=C(C)/C=C(/CC(C)C(=O)OC(C(=O)O)C(C(=O)OC)C(O)C(=O)OC)C(=O)OC (stereo not shown) [Compound 6, 4-Hydroxy-5-methoxy-3-(methoxycarbonyl)-2-{(4Z,6E)-4-(methoxycarbonyl)-2,6,8,10,12,14-hexamethylhexadec-4,6-dienoyloxy}-5-oxopentanoic Acid]	≥ 90
CCC(C)CC(C)CC(C)CC(C)/C=C(C)/C=C(/CC(C)C(=O)OC(C(=O)OC)C(C(=O)OC)C(O)C(=O)OC)C(=O)OC (stereo not shown) [Compound 7, Trimethyl 1-hydroxy-3-{(4Z,6E)-4(methoxycarbonyl)-2,6,8,10,12,14-hexamethylhexadec-4,6-dienoyloxy}-propane-1,2,3-tricarboxylate]	≥ 90
CCC(C)CC(C)CC(C)CC(C)/C=C(C)/C=C(/CC(C)C(=O)O)C(=O)OC(C)(C)C (stereo not shown) [Compound 8, (4Z,6E)-4-(tert-Butoxycarbonyl)-2,6,8,10,12,14-hexamethylhexadec-4,6-dienoic Acid]	≥ 90
CCC(C)CC(C)CC(C)CC(C)/C=C(C)/C=C(/CC(C)C(=O)OCC(=O)O)C(=O)O (stereo not shown) [Compound 9, (2Z,4E)-2-{3-(Carboxymethoxy)-2-methyl-3-oxopropyl}-4,6,8,10,12-pentamethyltetradec-2,4-dienoic Acid]	≥ 90
CCC(C)CC(C)CC(C)CC(C)/C=C(C)/C=C(/CC(C)C(=O)OC)C(=O)O (stereo not shown) [Compound 10, (2Z,4E)-2-(3-Methoxy-2-methyl-3-oxopropyl)-4,6,8,10,12-pentamethyltetradec-2,4-dienoic Acid]	≥ 90
CCC(C)CC(C)CC(C)CC(C)/C=C(C)/C=C(/CC(C)C(=O)OCCC(=O)O)C(=O)O (stereo not shown) [Compound 11, (2Z,4E)-2-{3-(2-Carboxyethoxy)-2-methyl-3-oxopropyl}-4,6,8,10,12-pentamethyltetradec-2,4-dienoic Acid]	≥ 90
CCC(C)CC(C)CC(C)CC(C)/C=C(C)/C=C(/CC(C)C(=O)CCCC(=O)O)C(=O)O (stereo not shown) [Compound 12, (2Z,4E)-2-{3-(3-Carboxypropyl)-2-methyl-3-oxopropyl}-4,6,8,10,12-pentamethyltetradec-2,4-dienoic Acid]	≥ 90
CCC(C)CC(C)CC(C)CC(C)/C=C(C)/C=C(/CC(C)C(=O)CCCO)C(=O)O (stereo not shown) [Compound 13, (2Z,4E)-2-{3-(3-Hydroxypropyl)-2-methyl-3-oxopropyl}-4,6,8,10,12-pentamethyltetradec-2,4-dienoic Acid]	≥ 90
CCC(C)CC(C)CC(C)CC(C)/C=C(C)/C=C(/CC(C)C(=O)O[C@@H](CC(=O)O)C(=O)O)C(=O)O (stereo partly drawn) [Compound 14, (2S)-2-{(4Z,6E)-4-Carboxy-2,6,8,10,12,14-hexamethylhexadec-4,6-dienoyloxy}succinic Acid]	≥ 90
CCC(C)CC(C)CC(C)CC(C)/C=C(C)/C=C(/CC(C)C(=O)O[C@H]1CCOC1=O)C(=O)O (stereo partly drawn) [Compound 15, (2Z,4E)-4,6,8,10,12-Pentamethyl-2-[2-methyl-3-oxo-3-{(S)-2-oxotetrahydrofuran-3-yloxy}propyl]tetradec-2,4-dienoic Acid]	≥ 90
CCC(C)CC(C)CC(C)CC(C)/C=C(C)/C=C(/CC(C)C(=O)OCC[C@H](O)C(=O)O)C(=O)O (stereo partly drawn) [Compound 16, (2Z,4E)-2-[3-{(S)-3-Carboxy-3-hydroxypropoxy}-2-methyl-3-oxopropyl]-4,6,8,10,12-pentamethyltetradec-2,4-dienoic Acid]	≥ 90
CCOP(=O)(OCC)O[C@H](C(=O)O)[C@H](OC(=O)C(C)C/C(=C/C(C)=C/C(C)CC(C)CC(C)CC(C)CC)C(=O)O)C(=O)O (stereo partly drawn) [Compound 17, (2S,3S)-2-{(4Z,6E)-4-Carboxy-2,6,8,10,12,14-hexamethylhexadec-4,6-dienoyloxy}-3-(diethoxyphosphoryloxy)succinic Acid]	≥ 90
CCC(C)CC(C)CC(C)CC(C)/C=C(C)/C=C(/CC(C)C(=O)[C@@H](CC)C(=O)O)C(=O)O (stereo partly drawn) [Compound 18, (2Z,4E)-2-[3-{(R)-1-Carboxypropyl}-2-methyl-3-oxopropyl]-4,6,8,10,12-pentamethyltetradec-2,4-dienoic Acid]	≥ 90
CCC(C)CC(C)CC(C)CC(C)/C=C(C)/C=C(/CC(C)C(=O)C[C@@H](O)CO)C(=O)O (stereo partly drawn) [Compound 19, (2Z,4E)-2-[3-{(R)-2,3-Dihydroxypropyl}-2-methyl-3-oxopropyl]-4,6,8,10,12-pentamethyltetradec-2,4-dienoic Acid]	≥ 90
CCC(C)CC(C)CC(C)CC(C)/C=C(C)/C=C(/CC(C)C(=O)O[C@@H]1CCOC1=O)C(=O)O (stereo partly drawn) [Compound 20, (2Z,4E)-4,6,8,10,12-Pentamethyl-2-[2-methyl-3-oxo-3-{(R)-2-oxotetrahydrofuran-3-yloxy}propyl]tetradec-2,4-dienoic Acid]	≥ 90
CCC(C)CC(C)CC(C)CC(C)/C=C(C)/C=C(/CC(C)C(=O)[C@@H]1COC(=O)C1)C(=O)O (stereo partly drawn) [Compound 21, (2Z,4E)-4,6,8,10,12-Pentamethyl-2-[2-methyl-3-oxo-3-{(S)-5-oxotetrahydrofuran-3-yl}propyl]tetradec-2,4-dienoic Acid]	≥ 90
CCC(C)CC(C)CC(C)CC(C)/C=C(C)/C=C(/CC(C)C(=O)OC(C(=O)O)C(=O)O)C(=O)O (stereo not shown) [Compound 22, 2-{(4Z,6E)-4-Carboxy-2,6,8,10,12,14-hexamethylhexadec-4,6-dienoyloxy}malonic Acid]	≥ 90
CCC(C)CC(C)CC(C)CC(C)/C=C(C)/C=C(/CC(C)C(=O)OC(C(=O)O)C(C(=O)O)C(=O)O)C(=O)O (stereo not shown) [Compound 23, 2-{(4Z,6E)-4-Carboxy-2,6,8,10,12,14-hexamethylhexadec-4,6-dienoyloxy}ethane-1,1,2-tricarboxylic Acid]	≥ 90
CCC(C)CC(C)CC(C)CC(C)/C=C(C)/C=C(/CC(C)C(=O)OCC(CC(=O)O)C(=O)O)C(=O)O (stereo not shown) [Compound 24, 2-[{(4Z,6E)-4-Carboxy-2,6,8,10,12,14-hexamethylhexadec-4,6-dienoyloxy}methyl]succinic Acid]	≥ 90
CCC(C)CC(C)CC(C)CC(C)/C=C(C)/C=C(/CC(C)C(=O)OCOC(C)=O)C(=O)O (stereo not shown) [Compound 28, (2Z,4E)-2-{3-(Acetoxymethoxy)-2-methyl-3-oxopropyl}-4,6,8,10,12-pentamethyltetradec-2,4-dienoic Acid]	≥ 90
CCC(C)CC(C)CC(C)CC(C)/C=C(C)/C=C(/CC(C)C(=O)OCOC(C)=O)C(=O)OCOC(C)=O (stereo not shown) [Compound 29, Bis(acetoxymethyl) (Z)-2-methyl-4-{(E)-2,4,6,8,10-pentamethyldodec-2-enylidene}pentanedioate]	≥ 90
CCC(C)CC(C)CC(C)CC(C)/C=C(C)/C=C(/CC(C)C(=O)OC(C(=O)O)C(C(=O)OCOC(C)=O)C(O)C(=O)OCOC(C)=O)C(=O)O (stereo not shown) [Compound 30, (2Z,4E)-2-[3-{4-(Acetoxymethoxy)-2-{(acetoxymethoxy)carbonyl}-1-carboxy-3-hydroxy-4-oxobutoxy}-2-methyl-3-oxopropyl]-4,6,8,10,12-pentamethyltetradec-2,4-dienoic Acid]	≥ 90
